Assay results reported in patent publication US9212168B2 (priority 2011, dated 2015).

What follows are molecules tested on HCV genotype 1a replicon (assay: HCV genotype 1a replicon assay (NS3 protease activity readout)). Conditions: HCV genotype 1a replicon.
Type: cell-based, hepatitis C virus
How it was run: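 Genotype 1a subgenomic replicon cells (APC89, Huh7.5) were treated with compound dose-responses in G418-free medium, 0.5% DMSO final, for 48 or 72 hours at 37° C. Lysate NS3/4a protease activity measured with 15 μM FRET substrate, 20 min at 37° C (ex 340/em 509 nm); EC50 by 4-parameter fit.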

Structure (SMILES)	Genotype 1a
COC(=O)N[C@H](C(=O)N1C[C@@H](N(C)C)C[C@H]1c1nc(-c2ccc(-c3cc(Cl)c(NC(=O)c4ccc(N5CCN(C(=O)[C@H]6CC6(C)C)C[C@H]5C)nc4)cc3OC(F)(F)F)cc2)c(Cl)[nH]1)C(C)C [Example 2-8]	D (D represents pEC50>10 (EC50<0.1 nM))
CNC(=O)N1C[C@@H](C)N(c2ccc(C(=O)Nc3cc(OC(F)(F)F)c(-c4ccc(-c5c[nH]c([C@@H]6C[C@H](C)CN6C(=O)[C@@H](NC(=O)OC(C)C)C(C)C)n5)cc4)cc3Cl)cn2)C[C@@H]1C [Example 7-5]	B (B represents pEC50 between 8 and 9 (EC50 between 1 and 10 nM))
COC(=O)N[C@H](C(=O)N1C[C@@H](O)C[C@H]1c1nc(-c2ccc(-c3cc(Cl)c(NC(=O)c4ccc(N5CCN(C(=O)C(C)(C)CO)C[C@H]5C)nc4)cc3OC(F)(F)F)cc2)c[nH]1)C1CCOCC1 [Example 26-11]	A (A represents a pEC50 value between 6 and 8 (EC50 between 1 μM and 10 nM))
COC(=O)NC(C(=O)N1C[C@@H](C)C[C@H]1c1nc(-c2ccc(-c3cc(Cl)c(C(=O)Nc4ccc(N5CCN(C(=O)C(C)(C)C)C[C@H]5C)nc4)cc3OC(F)(F)F)cc2)c[nH]1)C1C[C@@H](C)O[C@@H](C)C1 (stereo partly shown) [Example 23-2]	D (D represents pEC50>10 (EC50<0.1 nM))
CCCC(=O)N1CCN(c2ccc(C(=O)Nc3cc(OC(F)(F)F)c(-c4ccc(-c5c[nH]c([C@@H]6C[C@H](C)CN6C(=O)[C@@H](NC(=O)OC)C(C)C)n5)cc4)cc3Cl)cn2)[C@H](C)C1 [Example 1-68]	C (C represents pEC50 between and 9 and about 10, (EC50 between 1 nM and 0.1 nM))
COC(=O)N[C@H](C(=O)N1C[C@@H](C)C[C@H]1c1nc(-c2ccc(-c3cc(Cl)c(NC(=O)c4ccc(N5CCN(C(=O)c6c[nH]cn6)C[C@H]5C)nc4)cc3C(F)(F)F)cc2)c[nH]1)C(C)C [Example 1-32]	D (D represents pEC50>10 (EC50<0.1 nM))
COC(=O)N[C@H](C(=O)N1C[C@@H](C)C[C@H]1c1nc(-c2ccc(-c3ccc(C(=O)Nc4ccc(N5C[C@H](C)N(C(=O)C(C)(C)C)C[C@H]5C)nc4)cc3OC(F)(F)F)cc2)c(Cl)[nH]1)C(C)C [Example 4-26]	D (D represents pEC50>10 (EC50<0.1 nM))
COC(=O)N[C@H](C(=O)N1C[C@@H](OC)C[C@H]1c1nc(-c2ccc(-c3ccc(NC(=O)c4ccc(N5CCN(C(=O)C(C)(C)CO)C[C@H]5C)nc4)cc3OC(F)(F)F)cc2)c[nH]1)C(C)C [Example 27-7]	D (D represents pEC50>10 (EC50<0.1 nM))
COC(=O)N[C@H](C(=O)N1C[C@@H](C)C[C@H]1c1nc(-c2ccc(-c3cc(Cl)c(NC(=O)c4ccc(N5CCN(C(=O)C6(C(F)(F)F)CC6)C[C@H]5C)nc4)cc3OC(F)(F)F)cc2)c[nH]1)C(C)C [Example 1-99]	D (D represents pEC50>10 (EC50<0.1 nM))
COC(=O)N[C@H](C(=O)N1C[C@@H](C)C[C@H]1c1nc(-c2ccc(-c3cc(F)c(C(=O)Nc4ccc(N5CCN(C(=O)C(C)(C)C)C[C@H]5C)nc4)cc3OC(F)(F)F)cc2)c[nH]1)C(C)C [Example 4-41]	C (C represents pEC50 between and 9 and about 10, (EC50 between 1 nM and 0.1 nM))
COC(=O)N[C@H](C(=O)N1C[C@@H](C)C[C@H]1c1nc(-c2ccc(-c3ccc(C(=O)Nc4ccc(N5CCN(C(=O)[C@H]6CC6(C)C)C[C@H]5C)nc4)cc3OC(F)(F)F)cc2)c(Cl)[nH]1)C(C)C [Example 4-29]	D (D represents pEC50>10 (EC50<0.1 nM))
COC(=O)N[C@H](C(=O)N1C[C@@H](O)C[C@H]1c1nc(-c2ccc(-c3cc(Cl)c(NC(=O)c4ccc(N5CCN(C(=O)C(C)(C)C)C[C@H]5C)nc4)cc3OC(F)(F)F)cc2)c[nH]1)C(C)C [Example 26-8]	C (C represents pEC50 between and 9 and about 10, (EC50 between 1 nM and 0.1 nM))
COC(=O)NC(C(=O)N1C(C)CCC1c1nc(-c2ccc(-c3ccc(C(=O)Nc4ccc(N5CCN(C(=O)C6CC6(C)C)CC5C)nc4)cc3OC(F)(F)F)cc2)c(Cl)[nH]1)C(C)C (stereo not shown) [Example 18-1]	C (C represents pEC50 between and 9 and about 10, (EC50 between 1 nM and 0.1 nM))
COC(=O)NC(C(=O)N1CC(C)CC1c1nc(-c2ccc(-c3cc(Cl)c(NC(=O)c4ccc(N5CCN(C(=O)C(C)(C)C)CC5C)nc4)cc3C(F)(F)F)cc2)c[nH]1)C1CC(C)OC(C)C1 (stereo not shown) [Example 19-10]	A (A represents a pEC50 value between 6 and 8 (EC50 between 1 μM and 10 nM))
COC(=O)N[C@H](C(=O)N1C[C@@H](C)C[C@H]1c1nc(-c2ccc(-c3ccc(C(=O)Nc4ccc(N5C[C@H](C)N(C(=O)C6CC6C)C[C@H]5C)nc4)cc3OC(F)(F)F)cc2)c(Cl)[nH]1)C(C)C (stereo partly shown) [Example 4-13]	C (C represents pEC50 between and 9 and about 10, (EC50 between 1 nM and 0.1 nM))
COC(=O)N[C@H](C(=O)N1C[C@@H](OC)C[C@H]1c1nc(-c2ccc(-c3cc(Cl)c(NC(=O)c4ccc(N5CCN(C(=O)C(C)(C)C)C[C@H]5C)nc4)cc3C(F)(F)F)cc2)c[nH]1)C1CCCCC1 [Example 19-17]	C (C represents pEC50 between and 9 and about 10, (EC50 between 1 nM and 0.1 nM))
COC(=O)N[C@H](C(=O)N1C[C@@H](OC)C[C@H]1c1nc(-c2ccc(-c3ccc(C(=O)Nc4ccc(N5CCN(C(=O)C(C)(C)CO)C[C@H]5C)nc4)cc3OC(F)(F)F)cc2)c[nH]1)C1CCOCC1 [Example 22-14]	D (D represents pEC50>10 (EC50<0.1 nM))
CNC(=O)N1CCC[C@@]1(C)C(=O)N1C[C@@H](C)N(c2ccc(NC(=O)c3ccc(-c4ccc(-c5c[nH]c([C@@H]6C[C@H](C)CN6C(=O)[C@@H](NC(=O)OC)C(C)C)n5)cc4)c(OC(F)(F)F)c3)cn2)C[C@@H]1C [Example 4-9]	D (D represents pEC50>10 (EC50<0.1 nM))
COC(=O)N[C@H](C(=O)N1C[C@@H](C)C[C@H]1c1nc(-c2ccc(-c3cc(Cl)c(NC(=O)c4ccc(N5CCN(C(=O)[C@H]6CC6(C)C)C[C@H]5C)nc4)cc3C(F)(F)F)cc2)c[nH]1)C(C)C [Example 1-31]	D (D represents pEC50>10 (EC50<0.1 nM))
COC(=O)N[C@H](C(=O)N1C[C@@H](C)C[C@H]1c1nc(-c2ccc(-c3ccc(C(=O)Nc4ccc(N5CCN(C(=O)C6CC6(Cl)Cl)C[C@H]5C)nc4)cc3OC(F)(F)F)cc2)c(Cl)[nH]1)C(C)C (stereo partly shown) [Example 4-30]	C (C represents pEC50 between and 9 and about 10, (EC50 between 1 nM and 0.1 nM))
COC(=O)N[C@H](C(=O)N1C[C@@H](C)C[C@H]1c1nc(-c2ccc(-c3cc(Cl)c(NC(=O)c4ccc(N5CCN(C(=O)C(C)(C)CO)C[C@H]5C)nc4)cc3C(F)(F)F)cc2)c[nH]1)C1CCOCC1 [Example 19-4]	D (D represents pEC50>10 (EC50<0.1 nM))
COC(=O)N[C@H](C(=O)N1C[C@@H](C)C[C@H]1c1nc(-c2ccc(-c3cc(Cl)c(NC(=O)c4ccc(N5CCN(C(=O)[C@H]6CCCN6S(C)(=O)=O)C[C@H]5C)nc4)cc3OC(F)(F)F)cc2)c[nH]1)C(C)C [Example 1-39]	D (D represents pEC50>10 (EC50<0.1 nM))
COC(=O)NC(C(=O)N1CC(C)CC1c1nc(-c2ccc(-c3ccc(NC(=O)c4ccc(N5CCN(C(=O)C(C)(C)C)CC5C)nc4)cc3OC(F)(F)F)cc2)c[nH]1)C(C)OC (stereo not shown) [Example 13-14]	D (D represents pEC50>10 (EC50<0.1 nM))
COC(=O)N[C@H](C(=O)N1C[C@@H](C)C[C@H]1c1nc(-c2ccc(-c3ccc(NC(=O)c4ccc(N5CCN(C(=O)N(C)C)C[C@H]5C)nc4)cc3C(F)(F)F)cc2)c[nH]1)C(C)C [Example 1-64]	C (C represents pEC50 between and 9 and about 10, (EC50 between 1 nM and 0.1 nM))
COC(=O)N[C@H](C(=O)N1C[C@@H](C)C[C@H]1c1nc(-c2ccc(-c3cc(F)c(NC(=O)c4ccc(N5CCN(C(=O)[C@]6(C)CCCN6)C[C@H]5C)nc4)cc3OC(F)(F)F)cc2)c[nH]1)C(C)C [Example 1-27]	C (C represents pEC50 between and 9 and about 10, (EC50 between 1 nM and 0.1 nM))

Same assay, conditions: Hepatitis C virus, read-out: Genotype 1a, HCV genotype 1a replicon

Structure (SMILES)	EC50 [nM]
COC(=O)N[C@H](C(=O)N1CC(C)(C)C[C@H]1c1nc(-c2ccc(-c3ccc(C(=O)Nc4ccc(N5CCN(C(=O)C(C)(C)C)C[C@H]5C)nc4)cc3OC(F)(F)F)cc2)c[nH]1)C(C)C [Example 6-23]	1 to 10
COC(=O)N[C@H](C(=O)N1C[C@@H](N(C)CCN)C[C@H]1c1nc(-c2ccc(-c3cc(Cl)c(NC(=O)c4ccc(N5CCN(C(=O)C(C)(C)C)C[C@H]5C)nc4)cc3OC(F)(F)F)cc2)c[nH]1)C(C)C [Example 15-8]	0.1 to 1
CNC(=O)N1CCN(c2ccc(C(=O)Nc3cc(C(F)(F)F)c(-c4ccc(-c5c[nH]c([C@@H]6CC(C)(C)CN6C(=O)[C@@H](NC(=O)OC)C(C)C)n5)cc4)cc3F)cn2)[C@H](C)C1 [Example 3-4]	0.1 to 1
COC(=O)N[C@H](C(=O)N1C[C@@H](C)C[C@H]1c1nc(-c2ccc(-c3cc(Cl)c(NC(=O)c4ccc(N5CCN(C(=O)C(C)(C)CNS(C)(=O)=O)C[C@H]5C)nc4)cc3OC(F)(F)F)cc2)c[nH]1)C(C)C [Example 12-46]	< 0.1
COC(=O)N[C@H](C(=O)N1C[C@H](OC)C[C@H]1c1nc(-c2ccc(-c3cc(Cl)c(NC(=O)c4ccc(N5CCN(C(=O)C(C)(C)C)C[C@H]5C)nc4)cc3OC(F)(F)F)cc2)c[nH]1)C1CCOCC1 [Example 5-20]	< 0.1
COC(=O)N(C)[C@H](C(=O)N1C[C@@H](C)C[C@H]1c1nc(-c2ccc(-c3cc(Cl)c(NC(=O)c4ccc(N5CCN(C(=O)C(C)(C)CO)C[C@H]5C)nc4)cc3OC(F)(F)F)cc2)c[nH]1)C(C)C [Example 13-45]	0.1 to 1
COC(=O)N[C@H](C(=O)N1C[C@@H](Oc2ccn(C)n2)C[C@H]1c1nc(-c2ccc(-c3cc(Cl)c(NC(=O)c4ccc(N5CCN(C(=O)C(C)(C)C)C[C@H]5C)nc4)cc3OC(F)(F)F)cc2)c[nH]1)C(C)C [Example 15-2]	0.1 to 1
COC(=O)N[C@H](C(=O)N1C[C@@H](C)C[C@H]1c1nc(-c2ccc(-c3cc(Cl)c(NC(=O)c4ccc(N5CCN(C(=O)C6(N(C)C)CC6)C[C@H]5C)nc4)cc3OC(F)(F)F)cc2)c[nH]1)C(C)C [Example 12-10]	< 0.1
COC(=O)N[C@H](C(=O)N1C[C@@H](SC)C[C@H]1c1nc(-c2ccc(-c3ccc(C(=O)Nc4ccc(N5CCN(C(=O)C(C)(C)C)C[C@H]5C)nc4)cc3OC(F)(F)F)cc2)c[nH]1)C(C)C [Example 6-15]	0.1 to 1
